Values joined by “and” are separate entries in the source; they are usually repeats but may differ in a detail not shown here. Equal values may be shown once.
System: PC-3 multi-cell spheroids, viability
Test: Anticancer human tumor PC-3 cell line growth inhibition [IpAb];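 note: spheroids exposed to compounds for 7 days before readout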;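 for viability, T/C: 100% = DMSO vehicle control wells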
Details: for viability, T/C: stronger effect = lower value; active = viability on the fitted dose curve at most 10% of control; inactive = the rest
Excerpt: Combinatorial screen of targeted agents with ipatasertib and abemaciclib in multi-cell type tumor spheroids
A high-throughput screen of multi-cell type tumor spheroids was designed to identify active combinations of targeted small molecules and ipatasertib or abemaciclib. Complex spheroids include a stromal component modeled by human endothelial cells (HUVEC) and fibroblasts modeled by human mesenchymal stem cells (MSCs). The concentration ranges selected for each drug and investigational agent were based upon clinically achievable concentrations if the clinical Cmax of the agent was known.
Compounds. The drugs and investigational agents: ipatasertib (NSC767898), abemaciclib(NSC768073), selumetinib (NSC741078), trametinib (758246), adavosertib (NSC754352), everolimus (NSC733504), sapanisertib (NSC764658), vemurafenib (NSC761431), venetoclax (NSC766270), copanlisib (NSC809693), apelisib (NSC765974), palbociblib (NSC758247), vemurafenib (NSC761431), dabrafenib (NSC764134), ravoxertinib (NSC781343), BMS-387032 (NSC767048), sotorasib (NSC818433), talazoparib (NSC767125) and afursertib (NSC778305), were obtained from the National Cancer Institute (NCI) Developmental Therapeutics Program Chemical Repository. The FDA-approved anticancer drug set is available from the NCI Developmental Therapeutics Program. […] The stock solutions were prepared in dimethyl sulfoxide (DMSO, Sigma-Aldrich, St. Louis, MO, cat. D2650) at 800-fold the tested concentration and stored at -70 degrees C prior to their use. All drugs and investigational agents were tested over a range starting from a high concentration at or near the clinical Cmax and decreasing in half-log increments. If the clinical Cmax for an agent had not been determined, the highest concentration tested was 10 microM.
NCI60 Cell Culture. NCI60 cell lines were obtained from the NCI Developmental Therapeutics Program Tumor Repository. For each lot of cells, the Repository performed Applied Biosystems AmpFLSTR Identifiler testing with PCR amplification to confirm consistency with the published Identifier STR profile for each cell line. Cells were kept in continuous culture for no more than 20 passages. The optimal seeding densities for each of the cell lines at each time point assessed were determined prior to performing the concentration response studies. Briefly, the NCI60 human tumor lines were grown as monolayers in RPMI 1640 medium supplemented with 10% FBS and 2 mmol/L L-glutamine.
An additional 9 lines were from the NCI60 cell line panel including MDA-MB-231 breast carcinoma, MDA-MB-468 breast carcinoma, MCF7 breast carcinoma, Hs578T breast carcinoma, MALME-3M melanoma, SK-MEL-2 melanoma, SK-OV-3 ovarian carcinoma, DU-145 prostate carcinoma, PC-3 prostate carcinoma, all cell lines along with major genetic alterations are listed on Table 2. Pooled donor human umbilical vein endothelial cells (HUVEC, Lonza, cat. CC-2519) and human mesenchymal stem cells (hMSC, Lonza, cat. PT-2501) were purchased from Lonza (Walkersville, MD).
PDMR cell lines were grown in complete medium (DC medium): Dulbecco's modified Eagle's medium (DMEM)/F12 supplemented with 5% fetal bovine serum (FBS), 2 mM L-glutamine, 100 U/mL penicillin and 100 µg/ml streptomycin, 0.4 µg/ml hydrocortisone, 10 ng/ml epidermal growth factor (EGF) recombinant human protein, 24 µg/mL adenine, and 0.1 mg/mL primocin. During culture from frozen stock vials, PDMR cells were cultured in the same medium containing 10 µM Y-27632 (see Table 3). The PDCs were cultured in complete DMEM/F12 media without 10 microM Y-27632 dihydrochloride for at least two passages prior to the screen. The pooled donor HUVEC and hMSC were cultured in endothelial cell growth medium 2 (PromoCell, Heidelberg, Germany, cat. C-22011) and mesenchymal stem cell growth medium 2 (PromoCell, cat. C-28009), respectively. For all experiments, HUVEC and hMSC were used at passages </=5.
[…]

Cc1nc(NC(=O)N2CCCC2C(N)=O)sc1-c1ccnc(C(C)(C)C(F)(F)F)c1 (stereo not given)
inactive: viability, T/C (compound 0.0316 µM) 82.8% and 73.3% | viability, T/C (compound 0.1 µM) 78.5% and 59.6% | viability, T/C (compound 0.316 µM) 50.1% and 53.2% | viability, T/C (compound 1 µM) 49.3% and 48% | viability, T/C (compound 3.16 µM) 44% and 47.7% | viability, T/C (compound 10 µM) 15.2% and 14.2%
849 nM and 1070 nM: IC50 (curve of compound)

Cn1cnc2c(F)c(Nc3ccc(Br)cc3Cl)c(C(=O)NOCCO)cc21
> 3000 nM: IC50 (curve of compound)
inactive: viability, T/C (compound 0.00949 µM) 105% and 99.8% | viability, T/C (compound 0.03 µM) 113% and 107% | viability, T/C (compound 0.0949 µM) 96.4% and 95.3% | viability, T/C (compound 0.3 µM) 85.1% and 96% | viability, T/C (compound 0.949 µM) 91.9% and 91% | viability, T/C (compound 3 µM) 65.1% and 73.2%

Cn1ncc(Cl)c1-c1cc(C(=O)NC(CN)Cc2cccc(F)c2)sc1Cl (stereo not given)
inactive: viability, T/C (compound 0.0316 µM) 89.7% and 88.1% | viability, T/C (compound 0.1 µM) 62.9% and 60.5% | viability, T/C (compound 0.316 µM) 43.6% and 36.2% | viability, T/C (compound 1 µM) 23% and 19.2% | viability, T/C (compound 3.16 µM) 17.9% and 16.2%
active: viability, T/C (compound 10 µM) 0.14% and 0.16%
212 nM and 165 nM: IC50 (curve of compound)

Cn1nccc1Nc1nccc(-c2ccn(C(CO)c3ccc(Cl)c(F)c3)c(=O)c2)n1 (stereo not given)
8630 nM and > 10000 nM: IC50 (curve of compound)
inactive: viability, T/C (compound 0.0316 µM) 98.1% and 104% | viability, T/C (compound 0.1 µM) 99.6% and 97.7% | viability, T/C (compound 0.316 µM) 90.7% and 104% | viability, T/C (compound 1 µM) 119% and 109% | viability, T/C (compound 3.16 µM) 125% and 119% | viability, T/C (compound 10 µM) 41.7% and 92.9%

Cn1ncnc1[C@H]1c2n[nH]c(=O)c3cc(F)cc(c23)N[C@@H]1c1ccc(F)cc1
inactive: viability, T/C (compound 0.000316 µM) 96.7% and 95.8% | viability, T/C (compound 0.001 µM) 87.8% and 95.3% | viability, T/C (compound 0.00316 µM) 74.8% and 63% | viability, T/C (compound 0.01 µM) 53.3% and 58.5% | viability, T/C (compound 0.0316 µM) 43.7% and 50.4% | viability, T/C (compound 0.1 µM) 43.8% and 39%
16.3 nM and 19.1 nM: IC50 (curve of compound)

Cn1cnc2c(F)c(Nc3ccc(Br)cc3Cl)c(C(=O)NOCCO)cc21 + CC(C)NCC(C(=O)N1CCN(c2ncnc3c2C(C)CC3O)CC1)c1ccc(Cl)cc1
active: viability, T/C (second compound 3.16 µM, first compound 0.00949 µM) 8.45% | viability, T/C (second compound 3.16 µM, first compound 0.03 µM) 6.53% | viability, T/C (second compound 3.16 µM, first compound 0.0949 µM) 7.72% | viability, T/C (second compound 3.16 µM, first compound 0.3 µM) 7.02% | viability, T/C (second compound 3.16 µM, first compound 0.949 µM) 8% | viability, T/C (second compound 3.16 µM, first compound 3 µM) 6.09%
> 3000 nM: IC50 (curve of first compound, second compound 0.1 µM)
< 9.49 nM: IC50 (curve of first compound, second compound 0.316 µM) | IC50 (curve of first compound, second compound 1 µM) | IC50 (curve of first compound, second compound 3.16 µM) | IC50 (curve of first compound, second compound 10 µM)
inactive: viability, T/C (second compound 0.1 µM, first compound 0.00949 µM) 83.2% | viability, T/C (second compound 0.1 µM, first compound 0.03 µM) 73.6% | viability, T/C (second compound 0.1 µM, first compound 0.0949 µM) 88.3% | viability, T/C (second compound 0.1 µM, first compound 0.3 µM) 78.9% | viability, T/C (second compound 0.1 µM, first compound 0.949 µM) 70% | viability, T/C (second compound 0.1 µM, first compound 3 µM) 55.6% | viability, T/C (second compound 0.316 µM, first compound 0.00949 µM) 46.5% | viability, T/C (second compound 0.316 µM, first compound 0.03 µM) 45% | viability, T/C (second compound 0.316 µM, first compound 0.0949 µM) 47.3% | viability, T/C (second compound 0.316 µM, first compound 0.3 µM) 44.5% | viability, T/C (second compound 0.316 µM, first compound 0.949 µM) 45% | viability, T/C (second compound 0.316 µM, first compound 3 µM) 37.1% | viability, T/C (second compound 1 µM, first compound 0.00949 µM) 25.6% | viability, T/C (second compound 1 µM, first compound 0.03 µM) 27.1% | viability, T/C (second compound 1 µM, first compound 0.0949 µM) 24.1% | viability, T/C (second compound 1 µM, first compound 0.3 µM) 20.8% | viability, T/C (second compound 1 µM, first compound 0.949 µM) 19.9% | viability, T/C (second compound 1 µM, first compound 3 µM) 17.6% | viability, T/C (second compound 10 µM, first compound 0.00949 µM) 12.9% | viability, T/C (second compound 10 µM, first compound 0.03 µM) 12.2% | viability, T/C (second compound 10 µM, first compound 0.0949 µM) 11.5% | viability, T/C (second compound 10 µM, first compound 0.3 µM) 12.1% | viability, T/C (second compound 10 µM, first compound 0.949 µM) 11.4% | viability, T/C (second compound 10 µM, first compound 3 µM) 10.7%

Source: PubChem BioAssay AID2060327 (Molecular Pharmacology Branch, DTP, NCI, 2025)
